Measured values from PubChem BioAssay AID256 (DTP/NCI, 2004).
Where “and” joins values, the source holds several entries; their conditions need not be identical. Equal entries are not always repeated. Toxic doses and inconclusive results are not listed.

System: CD2F1 mice, L1210 leukemia ip, survival T/C
Assay: NCI In Vivo Anticancer Drug Screen. Data for tumor model L1210 Leukemia (intraperitoneal) in CD2F1 (CDF1) mice
Details: higher = longer survival
Outline: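 Read-out first: treated-group measurement over vehicle-control measurement, expressed as a ratio. Animals bore a transplanted tumor line and were dosed with compound or vehicle.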

[1] = endpoint: mean survival time, dose: 25.0 mg/kg/injection, schedule: Q01DX009 (ip), vehicle: saline
[2] = endpoint: mean survival time, dose: 50.0 mg/kg/injection, schedule: Q01DX009 (ip), vehicle: saline
[3] = endpoint: mean survival time, dose: 100.0 mg/kg/injection, schedule: Q01DX009 (ip), vehicle: saline
[4] = endpoint: mean survival time, dose: 200.0 mg/kg/injection, schedule: Q01DX009 (ip), vehicle: saline
[5] = endpoint: mean survival time, dose: 100.0 mg/kg/injection, schedule: Q01DX009 (ip), vehicle: saline with Tween-80
[6] = endpoint: mean survival time, dose: 100.0 mg/kg/injection, schedule: Q04DX003 (ip), vehicle: saline with Tween-80
[7] = endpoint: mean survival time, dose: 200.0 mg/kg/injection, schedule: Q01DX009 (ip), vehicle: saline with Tween-80
[8] = endpoint: mean survival time, dose: 200.0 mg/kg/injection, schedule: Q04DX003 (ip), vehicle: saline with Tween-80
[9] = endpoint: mean survival time, dose: 400.0 mg/kg/injection, schedule: Q01DX009 (ip), vehicle: saline with Tween-80
[10] = endpoint: mean survival time, dose: 400.0 mg/kg/injection, schedule: Q04DX003 (ip), vehicle: saline with Tween-80
[11] = endpoint: mean survival time, dose: 12.5 mg/kg/injection, schedule: Q01DX009 (ip), vehicle: saline with Tween-80
[12] = endpoint: mean survival time, dose: 25.0 mg/kg/injection, schedule: Q01DX009 (ip), vehicle: saline with Tween-80
[13] = endpoint: mean survival time, dose: 50.0 mg/kg/injection, schedule: Q01DX009 (ip), vehicle: saline with Tween-80

NCCc1ccc(O)c(O)c1
T/C [1]: 97 % of control
T/C [2]: 109 % of control
T/C [3]: 122 % of control and 109 % of control
T/C [4]: 112 % of control
T/C (endpoint: mean survival time, dose: 400.0 mg/kg/injection, schedule: Q01DX009 (ip), vehicle: saline): 119 % of control
T/C (endpoint: median survival time, dose: 0.1 mg/kg/injection, schedule: Q01DX009 (ip), vehicle: saline): 98 % of control and 107 % of control
T/C (endpoint: median survival time, dose: 0.5 mg/kg/injection, schedule: Q01DX009 (ip), vehicle: saline): 101 % of control and 107 % of control
T/C (endpoint: median survival time, dose: 1.0 mg/kg/injection, schedule: Q01DX009 (ip), vehicle: saline): 101 % of control and 107 % of control
T/C (endpoint: median survival time, dose: 10.0 mg/kg/injection, schedule: Q01DX009 (ip), vehicle: saline): 97 % of control
T/C (endpoint: median survival time, dose: 25.0 mg/kg/injection, schedule: Q01DX020 (ip), vehicle: saline): 101 % of control
T/C (endpoint: median survival time, dose: 50.0 mg/kg/injection, schedule: Q01DX020 (ip), vehicle: saline): 109 % of control
T/C (endpoint: median survival time, dose: 50.0 mg/kg/injection, schedule: Q04DX002 (ip), vehicle: saline with Tween-80): 111 % of control
T/C (endpoint: median survival time, dose: 100.0 mg/kg/injection, schedule: Q01DX009 (ip), vehicle: saline): 113 % of control and 117 % of control
T/C (endpoint: median survival time, dose: 100.0 mg/kg/injection, schedule: Q01DX020 (ip), vehicle: saline): 115 % of control
T/C (endpoint: median survival time, dose: 100.0 mg/kg/injection, schedule: Q04DX002 (ip), vehicle: saline with Tween-80): 111 % of control
T/C (endpoint: median survival time, dose: 150.0 mg/kg/injection, schedule: Q01DX009 (ip), vehicle: saline): 114 % of control
T/C (endpoint: median survival time, dose: 200.0 mg/kg/injection, schedule: Q01DX020 (ip), vehicle: saline): 115 % of control
T/C (endpoint: median survival time, dose: 200.0 mg/kg/injection, schedule: Q04DX002 (ip), vehicle: saline with Tween-80): 100 % of control
T/C (endpoint: median survival time, dose: 400.0 mg/kg/injection, schedule: Q01DX020 (ip), vehicle: saline): 118 % of control
T/C (endpoint: median survival time, dose: 400.0 mg/kg/injection, schedule: Q04DX002 (ip), vehicle: saline with Tween-80): 100 % of control
T/C (endpoint: median survival time, dose: 800.0 mg/kg/injection, schedule: Q01DX020 (ip), vehicle: saline): 118 % of control

C=C(C)C1CCC2=CCCC(C)C2(C)C1 (centres undefined)
T/C [2]: 98 % of control
T/C [3]: 104 % of control
T/C [4]: 90 % of control

Cc1ccc(S(=O)(=O)OCCCCCOS(=O)(=O)c2ccc(C)cc2)cc1
T/C [5]: 100 % of control
T/C [6]: 100 % of control
T/C [7]: 100 % of control
T/C [8]: 100 % of control
T/C [9]: 100 % of control
T/C [10]: 97 % of control

COc1cccc2c1C(=O)c1c(O)c3c(c(O)c1C2=O)C[C@@](O)(C(C)=O)C[C@@H]3OC1CC(N(Cc2ccccc2)Cc2ccccc2)C(O)C(C)O1 (some centres undefined)
T/C (endpoint: mean survival time, dose: 1.5 mg/kg/injection, schedule: Q01DX009 (ip), vehicle: saline with Tween-80): 105 % of control
T/C (endpoint: mean survival time, dose: 3.0 mg/kg/injection, schedule: Q01DX009 (ip), vehicle: saline with Tween-80): 111 % of control
T/C (endpoint: mean survival time, dose: 6.0 mg/kg/injection, schedule: Q01DX009 (ip), vehicle: saline with Tween-80): 117 % of control
T/C (endpoint: mean survival time, dose: 12.0 mg/kg/injection, schedule: Q01DX009 (ip), vehicle: saline with Tween-80): 150 % of control
T/C (endpoint: mean survival time, dose: 24.0 mg/kg/injection, schedule: Q01DX009 (ip), vehicle: saline with Tween-80): 115 % of control
T/C (endpoint: mean survival time, dose: 48.0 mg/kg/injection, schedule: Q01DX009 (ip), vehicle: saline with Tween-80): 94 % of control

Cc1cc(NC(=O)Nc2ccc(Cl)cc2)no1
T/C (endpoint: mean survival time, dose: 50.0 mg/kg/injection, schedule: Q01DX009 (ip), vehicle: saline sonified): 96 % of control
T/C (endpoint: mean survival time, dose: 100.0 mg/kg/injection, schedule: Q01DX009 (ip), vehicle: saline sonified): 96 % of control
T/C (endpoint: mean survival time, dose: 200.0 mg/kg/injection, schedule: Q01DX009 (ip), vehicle: saline sonified): 96 % of control

N#C/C(=C\c1ccco1)c1ccc([N+](=O)[O-])cc1
T/C (endpoint: mean survival time, dose: 6.25 mg/kg/injection, schedule: Q04DX003 (ip), vehicle: saline with Tween-80): 102 % of control
T/C (endpoint: mean survival time, dose: 12.5 mg/kg/injection, schedule: Q04DX003 (ip), vehicle: saline with Tween-80): 102 % of control
T/C (endpoint: mean survival time, dose: 25.0 mg/kg/injection, schedule: Q04DX003 (ip), vehicle: saline with Tween-80): 100 % of control
T/C (endpoint: mean survival time, dose: 100.0 mg/kg/injection, schedule: Q01DX001 (ip), vehicle: Klucel (hydroxypropylcellulose) (HPC)): 106 % of control
T/C (endpoint: mean survival time, dose: 200.0 mg/kg/injection, schedule: Q01DX001 (ip), vehicle: Klucel (hydroxypropylcellulose) (HPC)): 95 % of control
T/C (endpoint: mean survival time, dose: 400.0 mg/kg/injection, schedule: Q01DX001 (ip), vehicle: Klucel (hydroxypropylcellulose) (HPC)): 94 % of control

OCc1ccc2[n+](c1)CCc1c-2[nH]c2ccccc12
T/C (endpoint: mean survival time, dose: 12.5 mg/kg/injection, schedule: Q01DX001 (ip), vehicle: saline with Tween-80): 96 % of control
T/C [11]: 98 % of control
T/C (endpoint: mean survival time, dose: 25.0 mg/kg/injection, schedule: Q01DX001 (ip), vehicle: saline with Tween-80): 101 % of control
T/C [12]: 94 % of control
T/C (endpoint: mean survival time, dose: 50.0 mg/kg/injection, schedule: Q01DX001 (ip), vehicle: saline with Tween-80): 101 % of control
T/C [13]: 100 % of control

CSc1nccc2ccccc12
T/C (endpoint: mean survival time, dose: 12.5 mg/kg/injection, schedule: Q01DX009 (ip), vehicle: other): 106 % of control
T/C (endpoint: mean survival time, dose: 25.0 mg/kg/injection, schedule: Q01DX009 (ip), vehicle: other): 106 % of control
T/C (endpoint: mean survival time, dose: 50.0 mg/kg/injection, schedule: Q01DX009 (ip), vehicle: other): 106 % of control
T/C (endpoint: mean survival time, dose: 100.0 mg/kg/injection, schedule: Q01DX009 (ip), vehicle: other): 106 % of control

CCSCCCC(=O)O
T/C [1]: 97 % of control
T/C [2]: 93 % of control
T/C [3]: 101 % of control
T/C (endpoint: mean survival time, dose: 100.0 mg/kg/injection, schedule: Q04DX003 (ip), vehicle: saline sonified): 101 % of control

CC1=COC2CCCCC2O1 (centres undefined) (tested in a mixture with another compound)
T/C [5]: 95 % of control
T/C [7]: 97 % of control
T/C [9]: 91 % of control

NS(=O)(=O)c1cc(Cl)cc(Cl)c1O
T/C [8]: 91 % of control
T/C [10]: 93 % of control

c1cnc2c(c1)ccc1ncccc12
T/C [11]: 91 % of control
T/C [12]: 109 % of control
T/C [13]: 96 % of control

O=C(OCC(OC(=O)c1ccccc1)C(OC(=O)c1ccccc1)C(O)C(O)CO)c1ccccc1 (centres undefined) (tested in a mixture with another compound)
T/C (endpoint: mean survival time, dose: 100.0 mg/kg/injection, schedule: Q04DX002 (ip), vehicle: saline with Tween-80): 114 % of control
T/C (endpoint: mean survival time, dose: 200.0 mg/kg/injection, schedule: Q04DX002 (ip), vehicle: saline with Tween-80): 100 % of control

CC1(C)OC2COC(OCc3ccccc3)C(OCc3ccccc3)C2O1 (centres undefined)
T/C [5]: 104 % of control
T/C [7]: 101 % of control
T/C [9]: 96 % of control

Nc1c(C(=O)NOCc2ccccc2)ncn1C1CCCC1
T/C (endpoint: mean survival time, dose: 50.0 mg/kg/injection, schedule: Q01DX001 (ip), vehicle: other): 104 % of control
T/C (endpoint: mean survival time, dose: 100.0 mg/kg/injection, schedule: Q01DX001 (ip), vehicle: other): 102 % of control

CCOC(=O)C1=C(C)NC(C)=C(C(=O)OCC)C1C
T/C (endpoint: mean survival time, dose: 50.0 mg/kg/injection, schedule: Q04DX003 (ip), vehicle: saline with Tween-80): 98 % of control and 100 % of control
T/C [6]: 101 % of control and 103 % of control and 108 % of control
T/C [8]: 95 % of control and 98 % of control and 104 % of control
T/C [10]: 122 % of control

CSC(SC)=C1C(=O)NC(=O)NC1=O
T/C (endpoint: median survival time, dose: 3.12 mg/kg/injection, schedule: Q01DX009 (ip), vehicle: saline): 101 % of control
T/C (endpoint: median survival time, dose: 6.25 mg/kg/injection, schedule: Q01DX009 (ip), vehicle: saline): 112 % of control
T/C (endpoint: median survival time, dose: 12.5 mg/kg/injection, schedule: Q01DX009 (ip), vehicle: saline): 109 % of control
T/C (endpoint: median survival time, dose: 25.0 mg/kg/injection, schedule: Q01DX009 (ip), vehicle: saline): 109 % of control
T/C (endpoint: median survival time, dose: 50.0 mg/kg/injection, schedule: Q01DX009 (ip), vehicle: saline): 116 % of control

CN(C)C1CCc2ccc3ccccc3c2C1=O (centres undefined)
T/C (endpoint: mean survival time, dose: 12.5 mg/kg/injection, schedule: Q01DX009 (ip), vehicle: saline): 105 % of control
T/C [1]: 102 % of control
T/C [2]: 105 % of control

Nc1ccc(N=Nc2ccccc2)c(N)n1
T/C [5]: 98 % of control
T/C [7]: 98 % of control
T/C [9]: 100 % of control
